Experimental data published in patent US20250003953A1, “Methods and Model Systems for Assessing Therapeutic Properties of Candidate Agents and Related Computer Readable Media and Systems” (The Regents of the University of California, priority 2021, published 2025).

Experiments:
[1] = system: patients derived xenografts (PDX) grown as pooled organoids; experiment: Cell cycle inhibition rates from GENEVA in pooled PDX; format: cell-based, human; settings: PDX with known KRAS.G12C mutations; in vivo and ex vivo systems
Text: Using growth-rate balanced heterogeneous cell pools adjusted for long time-course drug treatment, pools were created from four human patient-derived xenograft (PDX) models and implanted as a pooled tumor in a flank xenograft mouse model. The pooled tumors were drugged in mice by oral dosing by gavage for fourteen days with the molecule ARS-1620. After the treatment interval, tumors were harvested from mice, and single-cell RNA sequencing, genetic demultiplexing (as illustrated in Example 2), and sample hashing using barcoded antibodies was performed. Sufficient numbers of cells were observed from each PDX genetic background and drug treatment condition (FIG. 2C,D) for inference of drug phenotype and drug changes to the transcriptome. Pools from four PDX models were created for implantation for a fourteen day drug treatment in a 3D Organoid model system. […]
Cell Cycle was calculated by regressing whole transcriptome readouts and weighting according to specified genes of interest related to different cell cycle states. Cells were assigned into G1, S, and G2/M. The cell cycle ratio was then calculated as fraction of cells per population: […]
yielded a function where the slope was determined as the cell cycle inhibition rate, reflecting an alternative way to measure phenotype derived solely from transcriptome drug perturbation data over a long time course.

[2] = system: KRAS.G12C cell lines in a cell pool; experiment: GENEVA pool gene set expression after drug, in vivo; set-up: species or system mouse; settings: post-drug treatment
Protocol: 2 mL of Matrigel Basement Membrane reagent was added to the GENEVA pool prepared by growth rate balancing for a final concentration of 20M/mL. One hundred microliters of this solution was injected into NSG mice in a flank xenograft injection. Twenty-four hours later, mice harboring GENEVA tumors were drugged with the drug compound in a vehicle solution of 5% DMSO, 95% Labrasol. Mice were dosed by oral gavage four fourteen days with five days on, two days off. On the fourteenth day, mice were sacrificed, tumors harvested by homogenization with surgical shears and resuspended in 5 mg/mL Liberase™ Cell Dissociation Reagent in 1:1 DMEM: F12 cell media, DNAse I (10 U/uL). Tumors were incubated in a 37° C. incubator with shaking at 600 RPMs for 45 minutes for enzymatic dissociation and then spun down at 800 g for 5 minutes at 4° C. Dissociated tumors were resuspended in 100 uL 1×PBS.
The GENEVA datasets were compared where GENEVA pools were drugged with the KRAS.G12C inhibitor ARS1620, conducted both in vitro and in vivo. Specifically, the in vitro data were compared against the in vivo data to look for differences and similarities attributable to the context of the model systems used. […]
For in vivo and in vitro datasets, we combined the median z score results determined in Example 8 and t-test results, respectively, were combined on a paired geneset by geneset basis. […]

KRAS.G12V cell line H441 = experiment: Lipid peroxidation by KRAS inhibitors in non-KRAS.G12C line; format: cell-based, human
Protocol: FIG. 7B plots gene expression of anti-ferroptotic genes for each cell line in response to increasing ARS1620 dosage.
Using a lipid peroxidation live cell probe, lipid peroxidation—one of the hallmark phenotypes of ferroptosis—was measured in response to ARS-1620 treatment.

C=CC(=O)N1CCN(c2ncnc3c(F)c(-c4c(O)cccc4F)c(Cl)cc23)CC1 [ARS1620]
drug sensitivity by estimation of cell cycle inhibition rates [1]: shown to be sensitive to the compound (patients 877 and 233)
endothelial-mesenchymal transition hallmark gene expression signature [2]: increased in vivo
lipid peroxidation (KRAS.G12V cell line H441): this effect was significantly muted
